Experimental data: patent US5753656A, “Method for treating spinocerebellar degeneration” (Suntory Limited, priority 1994, dated 1998)
Entries after “also recorded” stand apart in the source; their conditions may differ. Structures can show the parent of a compound that is named as a salt.

Key:
[1] = KOKAI No. 25323/84; cited from earlier work
[2] = Acute oral toxicity (LD50) in rats; format: in vivo
Excerpt: As the active ingredients provided by the present invention for treatment of spinocerebellar degeneration, (6R)-L-erythro-5,6,7,8-tetrahydrobiopterin (BH4) and its salts are most preferable, but analogous compounds such as (6R,S)-5,6,7,8-tetrahydrobiopterin, 1',2'-diacetyl-5, 6,7,8-tetrahydrobiopterin, sepiapterin, 6-methyl-5,6,7,8-tetrahydropterin or 6-phenyl-5,6,7,8-tetrahydropterin and their salts may also be acceptable. However, needless to say, BH4 which naturally exists in the body is preferable. […] The other compounds belonging to formula (I) likewise have little or no acute toxicity.

[3] = test system: Machado-Joseph disease (patients); experiment: Double-blind crossover trial of BH4: subjective improvement; format: in vivo, humans; settings: 1 mg/kg once daily, 10 days
Method: (§1) To 5 patients with Machado-Joseph disease listed in Table 1, a placebo (ascorbic acid) and BH4 were administered in a double-blind clinical trial with the procedure as follows:
(§2) Three patients from three families diagnosed as "clinically definite family" and two patients from two families diagnosed as "probable family" according to the diagnostic criteria by Sakai (Sakai, T., ditto) were selected.
(§3) The patients received 1 mg/kg(b.w.) of BH4 or ascorbic acid in capsules once daily, after lunch. The chemical form of BH4 given was BH4 dihydrochloride in Cases 1 to 3 and 5 and (6R,S)-L-erythro-5, 6,7,8-tetrahydrobiopterin dihydrochloride in Case 4.
Each patient was asked with respect to six symptomatic parameters: dysarthria, dysphagia, disturbance of dexterity, disturbance of stationary balance on standing, disturbance of gait, and overall sense of general well-being.
(§4) A double-blind, placebo-controlled crossover design was adopted.
(§5) Data were analyzed using paired t-test.

[4] = test system: Machado-Joseph disease (patients); experiment: Double-blind crossover trial of BH4: overall conclusion on neurologic symptoms; format: in vivo, humans; settings: 1 mg/kg once daily, 10 days, oral capsules
Method: as §1, §2, §3
Each patient was assessed by the following three methods:
as §4, §5

[5] = test system: Machado-Joseph disease (patients); experiment: Double-blind crossover trial of BH4: neurological examination; format: in vivo, humans; settings: 1 mg/kg once daily, 10 days
Method: as §1, §2, §3
The examination was performed in respect of muscle tonus of the extremities, deep reflexes, severity of dystonia, disturbance of stationary balance on standing, finger-to-nose test, finger tapping test, diadochokinetic test, heel-to-knee tapping test, and dysarthria.
as §4, §5

C[C@H](O)[C@H](O)C1CNc2nc(N)[nH]c(=O)c2N1 (stereo partly drawn) [(6R,S)-5,6,7,8-tetrahydrobiopterin]
Toxicity as seen in the treatment of patients with Parkinson disease [1]: only slightly toxic

C[C@H](O)[C@H](O)[C@H]1CNc2nc(N)[nH]c(=O)c2N1 [BH4 dihydrochloride]
Acute oral toxicity, assessment in words [2]: practically non-toxic
LD50 ([2]; rat, in vivo): > 2000 mg/kg

C[C@H](O)[C@H](O)[C@H]1CNc2nc(N)[nH]c(=O)c2N1 [BH4, (6R)-L-erythro-5,6,7,8-tetrahydrobiopterin]
Subjective symptoms, overall result [3]: none showed a statistically significant improvement
Effect on neurologic symptoms of Machado-Joseph disease, conclusion [4]: remarkable therapeutic efficacy; also recorded: effective in improving neurologic symptoms
Effect on neurologic symptoms of Machado-Joseph disease, conclusion ([4]; listed as tetrahydrobiopterin): remarkable amelioration of the neurologic symptoms
Neurological parameters, overall result [5]: none exhibited a statistically significant improvement
